System: B16 melanoma cells
Experiment: costimulatory/co-inhibitory molecule expression on B16 melanoma cells (flow cytometry)
Format: cell-based
Design: key to Upregulated (√)/No change (—) Costimulatory MHC CI / Upregulated (√)/No change (—) Costimulatory CD40 / Upregulated (√)/No change (—) Costimulatory CD80 / Upregulated (√)/No change (—) Costimulatory CD86 / Upregulated (√)/No change (—) Coinhibitory TIGIT / Upregulated (√)/No change (—) Coinhibitory PD-L1 / Upregulated (√)/No change (—) Coinhibitory PD-1: upregulated (√); no change (—)
Details: 24 hours, C90, C100, protasan 40 μg/ml, CpG 4 μg/ml, Etoposide 200 μM, DMXAA 10 μg/ml; for Fold increase in MFI Coinhibitory PD-1 / Fold increase in MFI Coinhibitory PD-L1 / Fold increase in MFI Coinhibitory TIGIT / Fold increase in MFI Costimulatory CD40 / Fold increase in MFI Costimulatory CD80 / Fold increase in MFI Costimulatory CD86 / Fold increase in MFI Costimulatory MHC CI: compared to unstimulated control
Procedure: Flow cytometric analysis of costimulatory molecule expression on B16-F10 cells: 2×10^5 B16 melanoma cells were stimulated with media or 40 μg/ml, C90, C100 or protasan for 24 hours in 24 well plates. Cells were removed from wells using ice cold PBS-EDTA, transferred to labelled FACS tubes and washed with 2 mL of PBS. Cells were stained with BV510 viability dye (1 in 1000 dilition) for 15 minutes at room temperature. Cells were then washed in PBS, and stained for cell surface markers for 30 minutes at room temperature. Cells were then washed in PBS, resuspended in […] of FACs buffer, with samples acquired via BD FACSCanto and the data analysed using Flowjo™ software (Treestar, Oregon).

Row | Structure (SMILES) | Upregulated (√)/No change (—) Coinhibitory PD-1 | Upregulated (√)/No change (—) Coinhibitory PD-L1 | Upregulated (√)/No change (—) Coinhibitory TIGIT | Upregulated (√)/No change (—) Costimulatory CD40 | Upregulated (√)/No change (—) Costimulatory CD80 | Upregulated (√)/No change (—) Costimulatory CD86 | Upregulated (√)/No change (—) Costimulatory MHC CI | Fold increase in MFI Coinhibitory PD-1 [fold] | Fold increase in MFI Coinhibitory PD-L1 [fold] | Fold increase in MFI Coinhibitory TIGIT [fold] | Fold increase in MFI Costimulatory CD40 [fold] | Fold increase in MFI Costimulatory CD80 [fold] | Fold increase in MFI Costimulatory CD86 [fold] | Fold increase in MFI Costimulatory MHC CI [fold]
1 | COc1cc([C@@H]2c3cc4c(cc3[C@@H](O[C@@H]3O[C@@H]5CO[C@@H](C)O[C@H]5[C@H](O)[C@H]3O)[C@H]3COC(=O)[C@H]23)OCO4)cc(OC)c1O [Etoposide] | — | √ | √ √ | √ √ | √ √ | √ √ | √ √ √ | 1.0 | 1.6 | 1.7 | 1.9 | 2.2 | 1.9 | 3.0
2 | Cc1ccc2c(=O)c3cccc(CC(=O)O)c3oc2c1C [DMXAA] | √ | √ | √ | — | — | — | √ | 1.2 | 1.2 | 1.3 | 1.1 | 1.0 | 1.1 | 1.2

Source: patent publication US20240100083A1, “IMMUNOTHERAPY FOR CANCER” (THE PROVOST, FELLOWS, FOUNDATION SCHOLARS, AND THE OTHER …, priority 2020, published 2024)
